Laboratory results reported in patent US20040077031A1, “Novel methionine aminopeptidase-2 and uses thereof” (priority 2002, published 2004).
Entries after “also recorded” stand apart in the source; their conditions may differ. Like-named read-outs stand apart in the source and are kept apart here.

Tests used:
MetAP1 [1] = target: T1, MetAP1 (Homo sapiens, UniProt P53582); assay: Metal dependence of MetAP1 in the presence of glutathione, radioactive methionine assay; assay type: biochemical; conditions: 5 mM glutathione
T1 construct: histidine tag (N); gp67 secretion signal of vector pAcGP67B (N); made in house; host or cells: baculovirus-infected Sf9 insect cells, secreted into medium
Description: Fmoc-L-Lys(biotinyl) —OH was purchased from Bachem (King of Prussia, Pa.). Fmoc-L-[methyl-^3H]Methionine was synthesized by reacting Fmoc-Cl with L-[methyl-^3H]Methionine (Amersham, Piscataway, N.J.) in a 1:1 Dioxane/10% Na2CO3(aq) mixed solvent. The peptides were deprotected and cleaved from the resin using a trifluoroacetic acid solution containing water, thioanisole, and ethanedithiol (900 μl:25 μl:50 μl:25 μl) as scavengers. The peptides were purified by HPLC using a Waters C18 Symmetry column (7.8×300 mm, 7 μm; Milford, Mass.). […] The resulting amount of cleaved radioactive methionine is directly proportional to the catalytic activity of the MetAP. […] (See U.S. Pat. No. 6,156,495 for a discussion of labels and uses thereof). Conversely, anything impairing the catalytic activity of MetAP (e.g., inhibitory agents, wrong metal cofactor) will result in a decreased amount of free radioactive methionine.
To study the effect of metal ions in the presence of physiologically relevant reduced glutathione (GSH) (Walker and Bradshaw, 1998), the assay measuring radioactive methionine release from a peptide described in Example 3.2 was used because GSH affected the coupled enzyme chromogenic assay.

HMVEC = assay: 3-day HMVEC proliferation assay; assay type: cell-based, human
Description: (§1) The cellular activity of A-357300 was tested in HMVEC grown in complete EGM2 medium enriched with a combination of growth factors (vascular endothelial growth factor (VEGF), basic fibroblast growth factor (bFGF), epidermal growth factor (EGF), and insulin-like growth factor (IGF)) and fetal bovine serum. […] To determine that the cellular effect of A-357300 was through inhibition of cellular MetAp2, HMVEC were incubated with the MetAP2 inhibitors fumagillin and A-357300 for 4 hours before ^35S-methionine was added to the culture. After another 2-hour incubation, cellular proteins were collected and applied to a reactive dye-agarose column as described in Example 6. MetAP2 specific substrates (GAPDH and other cellular proteins with a N-terminal cleavable initiator methionine) were captured on the agarose column.

cellular MetAP2 = target: T2, cellular MetAP2 (Homo sapiens, UniProt P50579); assay: Cellular MetAP2 activity (unprocessed initiator methionine of cellular proteins) in HMVEC; assay type: cell-based; conditions: for inhibition of cellular MetAP2 activity / initiator methionine processing: HMVEC
T2 construct: host or cells: HMVEC
Description: Human microvascular endothelial cells (HMVEC) (Clonetics, San Diego, Calif.) were grown in EGM2 recommended medium (Wang et al., J. Cell. Biochem. 77: 465-473, 2000). Cells in T75 flasks at approximately 70% confluence were changed to 15 ml EGLM (labeling medium, Clonetics) without added methionine. Fumagillin (Sigma Catalog No. F-6771) or A310840 (Abbott Laboratories, Abbott Park, Ill.) was added to the culture to final concentrations of 1 nM (fumagillin) or 0.5, 2 and 5 μM (A310840). The cells and inhibitors were incubated for four hours before adding 0.5 mCi/flask of ^35S-methionine (Amersham, Piscataway, N.J.). The cells were allowed further incubation for two hours, washed and lysed in 1 ml M-per (Pierce, Rockford, Ill.) buffer. The lysate samples having the same amount of radioactivity were loaded to a 0.5 ml column of Reactive Blue 72-agarose (Sigma, St. Louis, Mo.) equilibrated with 20 mM Tris/HCl, pH 7.5, 150 mM NaCl. The columns were washed with 30 ml equilibrium buffer, and then incubated with 3 ml of 100 nM MetAP2 in equilibration/washing buffer for 20 minutes at room temperature. The MetAP2 cleaved radioactivity (unprocessed initiator methionine) was then counted.
as §1

HMVEC cells = assay: Penetration and accumulation into HMVEC cells; assay type: in vitro ADME, human
MetAP2 [2] = target: T3, MetAP2 (Homo sapiens, UniProt P50579); assay: MetAP2 enzyme inhibition, coupled-enzyme chromogenic assay; assay type: biochemical
T3 construct: gp67 secretion signal of vector pAcGP67B (N); made in house; host or cells: baculovirus-infected Sf9 insect cells, secreted into medium
Source text: (§2) A coupled-enzyme chromogenic assay was used to measure methionine aminopeptidase activity by monitoring the production of free methionine cleaved from specific peptide substrates containing methionine. […] Other peptides can be used including dimeric, tetrameric, pentameric, hexameric, heptameric, nonameric, decameric, and undecameric peptides. […] Free methionine was oxidized with L-amino acid oxidase (AAO, Sigma Catalog No. A-9378) and horseradish peroxidase (HRP, Sigma Catalog No. P-8451). Oxidation by AAO of free methionine generates hydrogen peroxide (H2O2) which then reacts with HRP oxidizing 0-dianisidine (Sigma Catalog No. D-1954) or 10-acetyl-3,7-dihydrophenoxazine (Amplex Red, Molecular Probes). Assays were performed in 96-well microtiter plates. Enzyme preparations were diluted in assay buffer (50 mM HEPES, pH 7.4, 100 mM NaCl), and 10 μl of the enzymes were introduced into each well. A mixture (90 μl) of 0.1 mg/ml L-amino acid oxidase, 0.1 mg/ml of horseradish peroxidase, 0.1 mg/ml ortho-dianisidine, and 0.5 mM peptide substrate was added to each cell. The reactions were carried out at room temperature, and the absorbance at 450 nanometer (A450) was measured every 20 seconds over a period of twenty minutes using an automatic plate reader (Molecular Devices, Calif., USA). The rate in mOD/min, calculated for each well, was used to represent MetAP1 or MetAP2 activity. Under this assay condition, the methionine cleaved from peptide substrate by MetAP1 or MetAP2 was instantaneously oxidized to generate a final A450 readout.
as §1

HMVEC/HUVEC = assay: Cell proliferation inhibition; assay type: cell-based; conditions: Homo sapiens, read-out: IC50s of proliferation inhibition
Description: as §1

HCT-15 = assay: Cell proliferation inhibition; assay type: cell-based; conditions: Homo sapiens, Tumor cells, read-out: IC50s of proliferation inhibition
Source text: (§3) Table 2 summarizes the selectivity of MetAP2 inhibitors in inhibiting the proliferation of endothelial cells and certain tumor cells. Proliferation of endothelial cells of various origins, normal human primary cells pf non-EC type, and tumor cell lines were studied with MetAP2 inhibitors A-357300 and fumagillin. […] Most tumor cells were […] while some were resistant.

Mammary Epithelial cells = assay: Cell proliferation inhibition; assay type: cell-based; conditions: Normal human primary cells, read-out: IC50s of proliferation inhibition
Source text: as §3

A549 = assay: Cell proliferation inhibition; assay type: cell-based; conditions: Homo sapiens, Tumor cells, read-out: IC50s of proliferation inhibition
Source text: as §3

MCF7 = assay: Cell proliferation inhibition; assay type: cell-based; conditions: Homo sapiens, Tumor cells, read-out: IC50s of proliferation inhibition
Source text: as §3

HT-1080 = assay: Cell proliferation inhibition; assay type: cell-based; conditions: Homo sapiens, Tumor cells, read-out: IC50s of proliferation inhibition
Source text: as §3

[3] = test system: Prostate Epithelial cells; assay: Cell proliferation inhibition; assay type: cell-based; conditions: Normal human primary cells, read-out: IC50s of proliferation inhibition
Source text: as §3

PC3 = assay: Cell proliferation inhibition; assay type: cell-based; conditions: Homo sapiens, PC-3, Tumor cells, read-out: IC50s of proliferation inhibition
Source text: as §3

DLD-1 = assay: Cell proliferation inhibition; assay type: cell-based; conditions: Homo sapiens, Tumor cells, read-out: IC50s of proliferation inhibition
Source text: as §3

MDA-MB = assay: Cell proliferation inhibition; assay type: cell-based; conditions: Tumor cells, read-out: IC50s of proliferation inhibition
Source text: as §3

NCI-H460 = assay: Cell proliferation inhibition; assay type: cell-based; conditions: Homo sapiens, Tumor cells, read-out: IC50s of proliferation inhibition
Source text: as §3

CHP-134 = assay: Cell proliferation inhibition; assay type: cell-based; conditions: Homo sapiens, Tumor cells, read-out: IC50s of proliferation inhibition
Source text: as §3

MiaPaCa2 = assay: Cell proliferation inhibition; assay type: cell-based; conditions: Homo sapiens, MIA PaCa-2, Tumor cells, read-out: IC50s of proliferation inhibition
Source text: as §3

BEND3 (mouse) = assay: Cell proliferation inhibition; assay type: cell-based; conditions: EC, read-out: IC50s of proliferation inhibition
Source text: as §3

T-lymphocytes = assay: Cell proliferation inhibition; assay type: cell-based; conditions: T-lymphocyte, Normal human primary cells, read-out: IC50s of proliferation inhibition
Source text: as §3

Astrocytes = assay: Cell proliferation inhibition; assay type: cell-based; conditions: Astrocyte, Normal human primary cells, read-out: IC50s of proliferation inhibition
Source text: as §3

BAEC (bovine) = assay: Cell proliferation inhibition; assay type: cell-based; conditions: Bos taurus, EC, read-out: IC50s of proliferation inhibition
Source text: as §3

MDA-435-LM = assay: Cell proliferation inhibition; assay type: cell-based; conditions: Homo sapiens, Tumor cells, read-out: IC50s of proliferation inhibition
Source text: as §3

Human CEC = assay: Cell proliferation inhibition; assay type: cell-based; conditions: EC, read-out: IC50s of proliferation inhibition
Source text: as §3

Fibroblasts = assay: Cell proliferation inhibition; assay type: cell-based; conditions: Fibroblast, Normal human primary cells, read-out: IC50s of proliferation inhibition
Source text: as §3

MetAP2 [4] = target: T3, MetAP2; assay: Kinetic constants of MetAP2 with Mn2+ on peptide substrates (chromogenic assay); assay type: biochemical; conditions: MetAP2 with 100 μM Mn2+
Source text: as §2, with “A mixture (90 μl) of 0.1 mg/ml L-amino acid oxidase, 0.1 mg/ml of horseradish peroxidase, 0.1 mg/ml ortho-dianisidine, and 0.5 mM peptide substrate was added to each cell.” left out

MetAP2 [5] = target: T3, MetAP2; assay: Metal dependence and baseline activity of MetAP2, chromogenic assay; assay type: biochemical
Source text: as §2
Both MetAP1 and MetAP2 need the presence of a metal in the active site for optimal activity, and have previously been classified as Co^2+, metalloproteases (Arfin et al, 1995; Li and Chang, 1996). […]

MetAP1 [6] = target: T1, MetAP1; assay: Metal dependence and baseline activity of MetAP1, chromogenic assay; assay type: biochemical
Source text: as §2
Both MetAP1 and MetAP2 need the presence of a metal in the active site for optimal activity, and have previously been classified as Co^2+, metalloproteases (Arfin et al, 1995; Li and Chang, 1996). […] Calcium chloride (Ca^2+), cobalt chloride (Co^2+), cupric chloride (Cu^2+), ferrous chloride (Fe^2+), magnesium chloride (Mg^2+), manganese chloride (Mn^2+), nickel chloride (Ni^2+), or zinc chloride (Zn^2+) was included in each assay at final concentrations of 0, 0.1, 1, 10, 100, 1000, and 10,000 μM in the assay buffer (50 mM HEPES, pH 7.4, 100 mM NaCl).

T3 sequence (P50579 whole entry): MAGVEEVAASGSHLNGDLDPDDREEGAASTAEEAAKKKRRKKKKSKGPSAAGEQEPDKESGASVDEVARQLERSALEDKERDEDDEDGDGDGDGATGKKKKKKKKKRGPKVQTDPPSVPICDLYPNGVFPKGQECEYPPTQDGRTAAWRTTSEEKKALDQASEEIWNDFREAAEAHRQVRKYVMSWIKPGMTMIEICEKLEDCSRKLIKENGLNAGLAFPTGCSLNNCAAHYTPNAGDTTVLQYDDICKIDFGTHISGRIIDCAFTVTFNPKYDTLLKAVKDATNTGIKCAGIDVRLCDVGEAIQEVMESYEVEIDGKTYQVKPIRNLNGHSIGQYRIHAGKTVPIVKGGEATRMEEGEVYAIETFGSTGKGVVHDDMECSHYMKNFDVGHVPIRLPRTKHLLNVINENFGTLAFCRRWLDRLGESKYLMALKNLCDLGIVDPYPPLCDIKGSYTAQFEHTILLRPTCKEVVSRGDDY
T2 sequence (P50579 whole entry): as above

## [Cl][Fe][Cl] [Fe^2+, ferrous chloride]
MetAP1 [1]
  effect on MetAP1 activity: stimulatory

## c1ccc2cc(CSc3nnc[nH]3)ccc2c1 [A310840, 3-((2-naphthylmethyl)sulfanyl)-4H-1,2,4-triazole]
HMVEC
  inhibition of HMVEC cell proliferation: did not inhibit
Cellular MetAP2
  inhibition of cellular MetAP2 activity / initiator methionine processing: did not inhibit
Cellular MetAP2; treatment up to 10 μM
  processing of protein initiator methionine in HMVEC: not blocked
HMVEC cells
  penetration and accumulation into HMVEC cells: able to penetrate and accumulate
MetAP2 [2]; Mn2+ as metal cofactor
  inhibition of MetAP2-Mn2+: did not inhibit
MetAP2 [2]; Mn2+ form versus baseline, Co2+ and other metal forms
  fold less active as inhibitor of MetAP2 with Mn2+: 1000 fold
MetAP2 [2]; other metal ions including Zn2+, Fe2+, and Ni2+, read-out: IC50 on MetAP2 with many other metal ions
  IC50: 10 to 117 nM
MetAP2 [2]; without added metals, read-out: IC50 on the baseline activity of MetAP2
  IC50: 60 nM

## [Cl-].[Cl-].[Zn+2] [Zn^2+, zinc chloride]
MetAP1 [1]
  effect on MetAP1 activity: showed the best activity

## CO[C@@H]1[C@H](OC(=O)/C=C/C=C/C=C/C=C/C(=O)O)CC[C@]2(CO2)[C@H]1[C@@]1(C)O[C@@H]1CC=C(C)C [Fumagillin, fumagillin]
HMVEC; 1 nM
  inhibition of HMVEC cell proliferation: inhibition of cell proliferation
Cellular MetAP2; 1 nM
  unprocessed N-terminal initiator methionine of cellular proteins in HMVEC: increased; also recorded: accumulation of unprocessed N-terminal methionine
Cellular MetAP2
  inhibition of cellular MetAP2 activity / initiator methionine processing: inhibition; also recorded: able to block
HMVEC/HUVEC
  IC50: 1 nM
HCT-15
  IC50: 3 nM
Mammary Epithelial cells
  IC50: > 1000 nM
A549
  IC50: 2 nM
MCF7
  IC50: > 1000 nM
HT-1080
  IC50: 1 nM
[3]
  IC50: > 1000 nM
PC3
  IC50: > 1000 nM
DLD-1
  IC50: 2 nM
MDA-MB
  IC50: > 1000 nM
NCI-H460
  IC50: 3 nM
CHP-134
  IC50: 1 nM
MiaPaCa2
  IC50: > 1000 nM
BEND3 (mouse)
  IC50: 2 nM
T-lymphocytes
  IC50: 8300 nM
Astrocytes
  IC50: > 1000 nM
BAEC (bovine)
  IC50: 1 nM
MDA-435-LM
  IC50: > 1000 nM
Human CEC
  IC50: 1 nM
Fibroblasts
  IC50: > 1000 nM
MetAP2 [2]; all metal ions
  inhibition of MetAP2 with all metal ions: inhibited MetAP2 with all metal ions

## MGKVKVG
MetAP2 [4]
  Km: 215 µM
  kcat: 9.563 s⁻¹

## [Cl][Co][Cl] [Co^2+, cobalt chloride]
MetAP2 [5]
  metal concentration of maximum effect on MetAP2: 10 µM
MetAP1 [1]
  effect on MetAP1 activity: stimulatory
MetAP1 [6]; MAS substrate
  stimulation of MetAP1 activity: about 2 fold
MetAP1 [6]; MGAQFSKT substrate
  stimulation of MetAP1 activity: 5 fold

## manganese chloride [Mn^2+]
MetAP2 [5]
  metal concentration of maximum effect on MetAP2: 1 µM
MetAP2 [5]; in the presence and absence of physiological concentrations of GSH
  concentration that fully stimulated human MetAP2 activity: 1 µM
MetAP1 [6]; MAS substrate
  stimulation of MetAP1 activity: about 2 fold
MetAP1 [6]; MGAQFSKT substrate
  stimulation of MetAP1 activity: 3 fold
